# Experimental data as given in patent US20020160990A1, “PHYTOSTEROL AND/OR PHYTOSTANOL DERIVATIVES” (priority 1998, published 2002).
# Read-outs that look alike come from different tables or passages of the source. Marks after values point to notes of the source that are not given here.
# What was measured:
# [1] = Solubility in Swiss rapeseed oil at room temperature by incremental addition of oil; format: physicochemical
# Excerpt: The minimum starting ratio was about 1:1, and trials were discontinued at above 10:1.
# male Fisher rats [2] = assay: Effects of phytosterol esters on plasma triglycerides in rats on high fat diet; format: in vivo, rat; conditions: for plasma triglycerides, Week 0 Means ± SD: Week 0 (pretreatment baseline), high fat diet, n=6; for plasma triglycerides, Week 2 Means ± SD: Week 2 of 2% (wt/wt) lipid in high fat diet; for plasma triglycerides, % change from pretreatment, Week 2: Week 2 vs week 0; for plasma triglycerides, Week 4 Means ± SD: Week 4 of 2% (wt/wt) lipid in high fat diet; for plasma triglycerides, % change from pretreatment, Week 4: Week 4 vs week 0
# Excerpt: (§1) Thirty male Fisher rats, weighing 177±14 g, were maintained on a high fat diet (Table 1) during the 2 weeks preceding treatment. They were then randomly divided into five experimental groups consisting of 6 animals each. The control group (Group 1) remained on the high fat diet used during the 2-week pretreatment period. For the other experimental diets, in order to have isocaloric diets and an equal amount of fat in all the experimental diets, 2% (wt/wt) of the fat content of the control diet (1% coconut oil and 1% corn oil) was replaced by 2% (wt/wt) of the following lipids:
# (§2) The rats were allowed free access to water and feed, and they were maintained on a 12-hour light-dark cycle. The feed in the cages was replaced daily, all unconsumed material discarded and food intake measured. Blood samples (1 ml) were taken by retroorbital puncture at the start of the experimental period (week 0) and after 2 weeks of treatment (week 2). After 4 weeks, the animals were sacrificed by withdrawing blood from the vena cava under Isoflurane anesthesia. Blood was collected into tubes containing […] as an anticoagulant.
# (§3) Plasma was prepared from the heparinized blood by immediate centrifugation at 1600 g for 10 minutes at 4° C. Assays of plasma cholesterol, triglycerides, and HDL-cholesterol (precipitation method) were determined enzymatically on a COBASFARA analyzer (Roche Diagnostica, Switzerland). Non-HDL cholesterol was calculated by difference. The fatty acid composition of the diets was analyzed by gas chromatography.
# (§4) All data are expressed as means±SD (standard deviation) for animals in each diet group. The mean differences between dietary groups were analyzed by one-way analysis of covariance (ANCOVA) with subsequent Dunnet's test for multiple comparison against a control group (Group 1 and/or Group 2). The covariate adjusted for was the value of the corresponding parameter at the start of the treatment period (week 0). All tests were performed at the 5%-level and 95%-confidence intervals were calculated.
# male Fisher rats [3] = assay: Effects of phytosterol esters on plasma total cholesterol in rats on high fat diet; format: in vivo, rat; conditions: for plasma total cholesterol, Week 0 Means ± SD: Week 0 (pretreatment baseline), high fat diet, n=6; for plasma total cholesterol, Week 2 Means ± SD: Week 2 of 2% (wt/wt) lipid in high fat diet; for plasma total cholesterol, % change from pretreatment, Week 2: Week 2 vs week 0; for plasma total cholesterol, Week 4 Means ± SD: Week 4 of 2% (wt/wt) lipid in high fat diet; for plasma total cholesterol, % change from pretreatment, Week 4: Week 4 vs week 0
# Excerpt: as §1, §2, §3, §4
# male Fisher rats [4] = assay: Effects of phytosterol esters on lipoproteins (HDL and non-HDL cholesterol) in rats on high fat diet; format: in vivo, rat; conditions: time point not given; for Non HDL cholesterol Means: calculated by difference; for HDL Cholesterol Means: precipitation method
# Excerpt: as §1, §2, §3, §4
# [5] = Swiss rapeseed oil, room temperature
# [6] = Swiss rapeseed oil, room temperature, minimum starting ratio about 1:1, discontinued above 10:1
compound,measurement,setting,value
"CC/C=C\C/C=C\C/C=C\C/C=C\C/C=C\CCCC(=O)OCC [EPA ethyl ester 90%, EPA ethyl ester]",Solubility (in words),[1]; [5],miscible
same,Solubility g oil/g material,[1]; [6],>1 g oil/g material
"CCC=CCC=CCC=CCC=CCC=CCC=CCCC(=O)OC1CC[C@@]2(C)C(CC[C@H]3[C@@H]4CC[C@H]([C@H](C)CC[C@@H](CC)C(C)C)[C@@]4(C)CC[C@@H]32)C1 (some centres unmarked) [Group 3, sitostanol-DHA ester]","plasma triglycerides, Week 0 Means ± SD",male Fisher rats [2],1.25 ± 0.26
same,"plasma triglycerides, Week 2 Means ± SD",male Fisher rats [2],0.83 ± 0.13^b
same,"plasma triglycerides, % change from pretreatment, Week 2",male Fisher rats [2],−34%
same,"plasma triglycerides, Week 4 Means ± SD",male Fisher rats [2],"0.74 ± 0.15^b,c"
same,"plasma triglycerides, % change from pretreatment, Week 4",male Fisher rats [2],−41%
same,"plasma total cholesterol, Week 0 Means ± SD",male Fisher rats [3],2.90 ± 0.58
same,"plasma total cholesterol, Week 2 Means ± SD",male Fisher rats [3],1.79 ± 0.37^b
same,"plasma total cholesterol, % change from pretreatment, Week 2",male Fisher rats [3],−38%
same,"plasma total cholesterol, Week 4 Means ± SD",male Fisher rats [3],1.23 ± 0.26^b
same,"plasma total cholesterol, % change from pretreatment, Week 4",male Fisher rats [3],−58%
same,Non HDL cholesterol Means,male Fisher rats [4],0.75 ± 0.21^a
same,HDL Cholesterol Means,male Fisher rats [4],0.49 ± 0.10^b
"CC/C=C\C/C=C\C/C=C\C/C=C\C/C=C\CCCC(=O)O[C@H]1CC[C@@]2(C)C(=CC[C@H]3[C@@H]4CC[C@H]([C@H](C)/C=C/[C@@H](CC)C(C)C)[C@@]4(C)CC[C@@H]32)C1 [Group 4, stigmasterol-EPA ester]","plasma triglycerides, Week 0 Means ± SD",male Fisher rats [2],0.98 ± 0.15
same,"plasma triglycerides, Week 2 Means ± SD",male Fisher rats [2],0.81 ± 0.19^b
same,"plasma triglycerides, % change from pretreatment, Week 2",male Fisher rats [2],−17%
same,"plasma triglycerides, Week 4 Means ± SD",male Fisher rats [2],"0.83 ± 0.13^b,c"
same,"plasma triglycerides, % change from pretreatment, Week 4",male Fisher rats [2],−15%
same,"plasma total cholesterol, Week 0 Means ± SD",male Fisher rats [3],2.97 ± 0.49
same,"plasma total cholesterol, Week 2 Means ± SD",male Fisher rats [3],1.94 ± 0.12^b
same,"plasma total cholesterol, % change from pretreatment, Week 2",male Fisher rats [3],−35%
same,"plasma total cholesterol, Week 4 Means ± SD",male Fisher rats [3],1.61 ± 0.25^b
same,"plasma total cholesterol, % change from pretreatment, Week 4",male Fisher rats [3],−46%
same,Non HDL cholesterol Means,male Fisher rats [4],"1.07 ± 0.26^a,b"
same,HDL Cholesterol Means,male Fisher rats [4],0.53 ± 0.08
"CC/C=C\C/C=C\C/C=C\C/C=C\C/C=C\C/C=C\CCC(=O)OCC [docosahexaenoic acid ethyl ester 90%, docosahexaenoic acid ethyl ester]",Solubility (in words),[1],miscible
same,Solubility g oil/g material,[1],>1 g oil/g material
CC[C@H](CC[C@@H](C)[C@H]1CC[C@H]2[C@@H]3CC[C@H]4C[C@@H](O)CC[C@]4(C)[C@H]3CC[C@]12C)C(C)C [stigmastanol],Solubility (in words),[1]; [5],insoluble
same,Solubility g oil/g material,[1]; [6],>10 g oil/g material
CC/C=C\C/C=C\C/C=C\C/C=C\C/C=C\C/C=C\CCC(=O)O[C@H]1CC[C@@]2(C)C(=CC[C@H]3[C@@H]4CC[C@H]([C@H](C)/C=C/[C@@H](CC)C(C)C)[C@@]4(C)CC[C@@H]32)C1 [stigmasterol docosahexaenoate],Solubility (in words),[1]; [5],miscible
same,Solubility g oil/g material,[1]; [6],>1 g oil/g material
"CCC=CCC=CCC=CCC=CCC=CCCCC(=O)OC1CCC2(C)C(=CCC3C2CCC2(C)C(C(C)C=CC(CC)C(C)C)CCC32)C1 (centres unmarked) [stigmasterol eicosapentenoate, Stigmasterol eicosapenatenoate]",Solubility (in words),[1]; [5],miscible
same,Solubility g oil/g material,[1]; [6],>1 g oil/g material
CC[C@H](/C=C/[C@@H](C)[C@H]1CC[C@H]2[C@@H]3CC=C4C[C@@H](O)CC[C@]4(C)[C@H]3CC[C@]12C)C(C)C [stigmasterol],Solubility (in words),[1]; [5],insoluble
same,Solubility g oil/g material,[1]; [6],>10 g oil/g material
Stigmastanol docosahexaenoate,Solubility (in words),[1]; [5],miscible
same,Solubility g oil/g material,[1]; [6],>1 g oil/g material
